# Test results reported in ChEMBL document CHEMBL1153804, “Optimization of a series of quinazolinone-derived antagonists of CXCR3” (Bioorg Med Chem Lett, 2009).
# Tested on: Blood
# Experiment: Drug level in bleomycin-induced mouse blood at 1 mg/mL, sc
# Format: ADME, tissue-based
row,Drug uptake [ng/mL],SMILES
1,14,CCOc1ccc(-n2c([C@@H](C)N(Cc3ccc[n+]([O-])c3)C(=O)Cc3ccc(OC(F)(F)F)cc3)nc3ncccc3c2=O)cc1
2,19,CCOc1ccc(-n2c([C@@H](C)N(Cc3cccnc3)C(=O)Cc3ccc(OC(F)(F)F)cc3)nc3ncccc3c2=O)cc1

# Molecular target: T1, C-X-C chemokine receptor type 3 (Homo sapiens, UniProt P49682)
# T1 sequence (P49682 whole entry): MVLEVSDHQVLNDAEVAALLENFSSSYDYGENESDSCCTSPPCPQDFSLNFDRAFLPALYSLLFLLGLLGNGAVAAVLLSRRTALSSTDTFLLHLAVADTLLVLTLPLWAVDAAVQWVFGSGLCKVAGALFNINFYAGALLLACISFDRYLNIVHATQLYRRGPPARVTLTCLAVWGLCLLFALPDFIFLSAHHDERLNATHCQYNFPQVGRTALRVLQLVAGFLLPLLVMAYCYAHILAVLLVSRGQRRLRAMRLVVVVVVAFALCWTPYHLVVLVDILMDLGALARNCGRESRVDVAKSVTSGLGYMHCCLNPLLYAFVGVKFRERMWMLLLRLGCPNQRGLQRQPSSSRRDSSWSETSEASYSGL
# Experiment: Displacement of [125I]-1P10 from human CXCR3 expressed in PBMC after 2 hrs in RPMI buffer by scintillation counting
row,SMILES,IC50 [nM]
1,CCOc1ccc(-n2c([C@@H](C)N(Cc3cc(C)no3)C(=O)Cc3ccc(F)c(C(F)(F)F)c3)nc3ncccc3c2=O)cc1,2
2,CCOc1ccc(-n2c([C@@H](C)N(C(=O)Cc3ccc(F)c(C(F)(F)F)c3)C3CCN(C(C)=O)CC3)nc3ncccc3c2=O)cc1,6
3,CCOc1ccc(-n2c([C@@H](C)N(Cc3cccnc3)C(=O)CCc3ccc(C(F)(F)F)cc3)nc3ccccc3c2=O)cc1,2090
4,CCOc1ccc(-n2c([C@@H](C)N(Cc3cccnc3)C(=O)Cc3nc4ccc(C(F)(F)F)cc4[nH]3)nc3ccccc3c2=O)cc1,210
5,CCOc1ccc(-n2c([C@@H](C)N(Cc3ccc[n+]([O-])c3)C(=O)Cc3ccc(OC(F)(F)F)cc3)nc3ncccc3c2=O)cc1,4
6,CCOc1ccc(-n2c([C@@H](C)N(CC3CCN(C)CC3)C(=O)Cc3ccc(F)c(C(F)(F)F)c3)nc3ncccc3c2=O)cc1,2
7,CCOc1ccc(-n2c([C@@H](C)N(Cc3cccnc3)C(=O)Cc3cc(C(F)(F)F)cc(C(F)(F)F)c3)nc3ccccc3c2=O)cc1,7
8,CCOc1ccc(-n2c([C@@H](C)N(Cc3cccnc3)C(=O)CN3CCN(CCC(F)(F)F)CC3)nc3ccccc3c2=O)cc1,690
9,CCOc1ccc(-n2c([C@@H](C)N(Cc3cccnc3)C(=O)Cc3ccc(F)c(C(F)(F)F)c3)nc3cnccc3c2=O)cc1,32
10,CCOc1ccc(-n2c([C@@H](C)N(C[C@H]3CCCN3)C(=O)Cc3ccc(F)c(C(F)(F)F)c3)nc3ncccc3c2=O)cc1,2
11,CCOc1ccc(-n2c([C@@H](C)N(Cc3cccnc3)C(=O)Cc3ccc(F)c(C(F)(F)F)c3)nc3cccnc3c2=O)cc1,110
12,CCOc1ccc(-n2c([C@@H](C)N(C(=O)Cc3ccc(F)c(C(F)(F)F)c3)C3CCOCC3)nc3ncccc3c2=O)cc1,5
13,CCOc1ccc(-n2c([C@@H](C)N(Cc3cccnc3)C(=O)Cc3ccc(F)c(C(F)(F)F)c3)nc3ncccc3c2=O)cc1,5
14,CCOc1ccc(-n2c([C@@H](C)N(C[C@H]3CCCN3C(C)C)C(=O)Cc3ccc(F)c(C(F)(F)F)c3)nc3ncccc3c2=O)cc1,2

# The next lines start with the values.
row,IC50 [nM],SMILES
1,40,CCOc1ccc(-n2c([C@@H](C)N(Cc3cccnc3)C(=O)Cc3ccc(F)c(F)c3)nc3ccccc3c2=O)cc1
2,5,CCOc1ccc(-n2c([C@@H](C)N(C[C@@H]3CCCN3C(C)C)C(=O)Cc3ccc(F)c(C(F)(F)F)c3)nc3ncccc3c2=O)cc1
3,8,CCOc1ccc(-n2c([C@@H](C)N(Cc3cccnc3)C(=O)Cc3cc(F)c(F)c(F)c3)nc3ccccc3c2=O)cc1
4,11,CCOc1ccc(-n2c([C@@H](C)N(Cc3cccnc3)C(=O)Cc3cccc(C(F)(F)F)c3)nc3ccccc3c2=O)cc1
5,7,CCOc1ccc(-n2c([C@@H](C)N(Cc3cccnc3)C(=O)Cn3cnc(C(F)(F)F)c3)nc3ccccc3c2=O)cc1
6,1,CCOc1ccc(-n2c([C@@H](C)N(C(=O)Cc3ccc(F)c(C(F)(F)F)c3)C3CCN(C(C)C)CC3)nc3ncccc3c2=O)cc1
7,770,CCOc1ccc(-n2c([C@@H](C)N(Cc3cccnc3)C(=O)Cc3ccc(S(C)(=O)=O)cc3)nc3ccccc3c2=O)cc1
8,21,CCOc1ccc(-n2c([C@@H](C)N(Cc3cccnc3)C(=O)Cc3ccc(C#N)cc3)nc3ccccc3c2=O)cc1
9,42,CCOc1ccc(-n2c([C@@H](C)N(Cc3cccnc3)C(=O)Cc3ccc(F)c(C(F)(F)F)c3)nc3nccnc3c2=O)cc1

# Tested on: Blood
# Experiment: Drug level in bleomycin-induced mouse blood at 3 mg/mL, sc
# Format: ADME, tissue-based
row,Drug uptake [ng/mL],SMILES
1,19,CCOc1ccc(-n2c([C@@H](C)N(Cc3ccc[n+]([O-])c3)C(=O)Cc3ccc(OC(F)(F)F)cc3)nc3ncccc3c2=O)cc1
2,26,CCOc1ccc(-n2c([C@@H](C)N(Cc3cccnc3)C(=O)Cc3ccc(OC(F)(F)F)cc3)nc3ncccc3c2=O)cc1

# Tested on: Blood
# Experiment: Drug level in bleomycin-induced mouse blood at 10 mg/mL, sc
# Format: ADME, tissue-based
row,Drug uptake [ng/mL],SMILES
1,104,CCOc1ccc(-n2c([C@@H](C)N(Cc3cccnc3)C(=O)Cc3ccc(OC(F)(F)F)cc3)nc3ncccc3c2=O)cc1
